Measured values reported in US20150099753A1, “FORM 5 POLYMORPH OF 7-(TERT-BUTYL-D9)-3-(2,5-DIFLUOROPHENYL)-6-((1-METHYL-1H-1,2,4-TRIAZOL-5-YL)METHOXY)-[1,2,4]TRIAZOLO[4,3-B]PYRIDAZINE” (Concert Pharmaceuticals Inc., priority 2012, published 2015).

Experiments:
Assay type in all cases: physicochemical
[1] = Physical (crystal form) stability on exposure to ambient conditions or relative humidity
[2] = Relative thermodynamic stability of non-solvated forms (ripening studies); details: temperatures from between 22° C. and 70° C.
Protocol: Excess Form 1 was combined with EtOH (1.8 mL) and the suspension was stirred at 57° C. for 6 hrs. The suspension was allowed to settle, and the saturated EtOH solution was isolated, and added into a 2-mL vial containing a mixture of Forms 1, Form 3, and Form 4 ([…] of each). The suspension was stirred at 57° C. for 24 hrs. The solid was isolated on a Büchner funnel and air-dried for ˜6 hrs.
Once the above preparation of Form 5 was obtained, additional Form 5 was produced as follows. Form 1 (100 mg) was weighed into a […] 4-mL vial containing a stir-bar. EtOH (4-mL) was added and the suspension was stirred for 12 hrs and at 25° C. The suspension was filtered and the filtrate (1.8 mL) was added into a 2-mail vial containing equivalent amounts (10 mg) of Forms 3, 4, and 5. An aliquot of the suspension was immediately sampled; the solid was isolated by filtration, and analyzed by PXRD to verify the crystal-form. The suspension was stirred at 25° C. for an additional 24 hrs. A second aliquot was sampled; the solid was isolated by filtration, and analyzed to verify the crystal-form. […]
Once Form 5 crystals were isolated they were used to prepare additional Form 5 as follows. […] The solid was isolated on a Büchner funnel and air-dried for ˜6 hrs and determined to be Form 5.

[3] = Dynamic Vapor Sorption (DVS) analysis; details: DVS at 25° C., 0% RH to 90% RH cycles
Protocol: Dynamic Vapor Sorption (DVS). DVS experiments were conducted on a Surface Measurement Systems DVS-HT at 25° C. The instrument was operated in step mode and the relative humidity was increased in 10% RH increments from 40% RH to 90% RH, then decreased from 90% RH to 0% RH, then increased from 0% RH to 90% RH, then decreased from 90% RH to 0% RH. An extra step at 75% RH was included in each cycle. The mass equilibrium criterion was set at 0.005% change in mass over time (dm/dt) prior to each humidity level. A minimum step time of 10 minutes and a maximum step time of 240 minutes were specified.

[4] = Crystal form stability when suspended and stirred in MeOH:water; details: stirred for 72 hours at ambient temperature

physical stability ([1]; exposed to 75% relative humidity for 5 days): physically stable
physical stability ([1]; exposed to ambient conditions for at least 7 days): physically stable
DVS weight gain (hygroscopicity; non-hygroscopic) [3]: < 0.4 % wt. gain
crystal form conversion in suspension ([4]; suspended in MeOH:water 95:5% volume): converts to Form 2
crystal form conversion in suspension ([4]; suspended in MeOH:water 98:2% volume): converts to Form 2
SMILES: [2H]C([2H])([2H])C(c1cc2nnc(-c3cc(F)ccc3F)n2nc1OCc1ncnn1C)(C([2H])([2H])[2H])C([2H])([2H])[2H] [Form 5, 7-(tert-Butyl-d9)-3-(2,5-difluorophenyl)-6-((1-methyl-1H-1,2,4-triazol-5-yl)methoxy)-[1,2,4]triazolo[4,3-b]pyridazine]
physical stability ([1]; exposed to 97% RH for 5 days at room temperature): physically unstable and partially converts to hydrated crystal Form 2
thermodynamic stability relative to other non-solvated forms (Forms 1, 3 and 4) [2]: more thermodynamically stable than any of the other non-solvated forms
